# Data as given in patent US11919887B2, “Substituted tetrahydrofurans as modulators of sodium channels” (Vertex Pharmaceuticals Incorporated, priority 2019, dated 2024).
# Target: human Nav 1.8 (Homo sapiens, UniProt Q9Y5Y9)
# Experiment: E-VIPR assay detecting and measuring Nav inhibition (HEK cells expressing truncated human Nav 1.8)
# Format: cell-based
# Details: in the Absence of Human Serum in the E-VIPR Assay
# Summary of the method: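 HEK cells expressing truncated human Nav1.8, transduced with KIR2.1 BacMam, were loaded with CC2-DMPE/DiSBAC6(3) FRET dyes and tested under electrical stimulation (E-VIPR). Compounds were run as 11-point 3-fold dilutions, top 300 nM final, 0.625% DMSO, with or without 25% human serum.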
# Sequence of human Nav 1.8 (Q9Y5Y9 whole entry, looked up, the tested form may be a part): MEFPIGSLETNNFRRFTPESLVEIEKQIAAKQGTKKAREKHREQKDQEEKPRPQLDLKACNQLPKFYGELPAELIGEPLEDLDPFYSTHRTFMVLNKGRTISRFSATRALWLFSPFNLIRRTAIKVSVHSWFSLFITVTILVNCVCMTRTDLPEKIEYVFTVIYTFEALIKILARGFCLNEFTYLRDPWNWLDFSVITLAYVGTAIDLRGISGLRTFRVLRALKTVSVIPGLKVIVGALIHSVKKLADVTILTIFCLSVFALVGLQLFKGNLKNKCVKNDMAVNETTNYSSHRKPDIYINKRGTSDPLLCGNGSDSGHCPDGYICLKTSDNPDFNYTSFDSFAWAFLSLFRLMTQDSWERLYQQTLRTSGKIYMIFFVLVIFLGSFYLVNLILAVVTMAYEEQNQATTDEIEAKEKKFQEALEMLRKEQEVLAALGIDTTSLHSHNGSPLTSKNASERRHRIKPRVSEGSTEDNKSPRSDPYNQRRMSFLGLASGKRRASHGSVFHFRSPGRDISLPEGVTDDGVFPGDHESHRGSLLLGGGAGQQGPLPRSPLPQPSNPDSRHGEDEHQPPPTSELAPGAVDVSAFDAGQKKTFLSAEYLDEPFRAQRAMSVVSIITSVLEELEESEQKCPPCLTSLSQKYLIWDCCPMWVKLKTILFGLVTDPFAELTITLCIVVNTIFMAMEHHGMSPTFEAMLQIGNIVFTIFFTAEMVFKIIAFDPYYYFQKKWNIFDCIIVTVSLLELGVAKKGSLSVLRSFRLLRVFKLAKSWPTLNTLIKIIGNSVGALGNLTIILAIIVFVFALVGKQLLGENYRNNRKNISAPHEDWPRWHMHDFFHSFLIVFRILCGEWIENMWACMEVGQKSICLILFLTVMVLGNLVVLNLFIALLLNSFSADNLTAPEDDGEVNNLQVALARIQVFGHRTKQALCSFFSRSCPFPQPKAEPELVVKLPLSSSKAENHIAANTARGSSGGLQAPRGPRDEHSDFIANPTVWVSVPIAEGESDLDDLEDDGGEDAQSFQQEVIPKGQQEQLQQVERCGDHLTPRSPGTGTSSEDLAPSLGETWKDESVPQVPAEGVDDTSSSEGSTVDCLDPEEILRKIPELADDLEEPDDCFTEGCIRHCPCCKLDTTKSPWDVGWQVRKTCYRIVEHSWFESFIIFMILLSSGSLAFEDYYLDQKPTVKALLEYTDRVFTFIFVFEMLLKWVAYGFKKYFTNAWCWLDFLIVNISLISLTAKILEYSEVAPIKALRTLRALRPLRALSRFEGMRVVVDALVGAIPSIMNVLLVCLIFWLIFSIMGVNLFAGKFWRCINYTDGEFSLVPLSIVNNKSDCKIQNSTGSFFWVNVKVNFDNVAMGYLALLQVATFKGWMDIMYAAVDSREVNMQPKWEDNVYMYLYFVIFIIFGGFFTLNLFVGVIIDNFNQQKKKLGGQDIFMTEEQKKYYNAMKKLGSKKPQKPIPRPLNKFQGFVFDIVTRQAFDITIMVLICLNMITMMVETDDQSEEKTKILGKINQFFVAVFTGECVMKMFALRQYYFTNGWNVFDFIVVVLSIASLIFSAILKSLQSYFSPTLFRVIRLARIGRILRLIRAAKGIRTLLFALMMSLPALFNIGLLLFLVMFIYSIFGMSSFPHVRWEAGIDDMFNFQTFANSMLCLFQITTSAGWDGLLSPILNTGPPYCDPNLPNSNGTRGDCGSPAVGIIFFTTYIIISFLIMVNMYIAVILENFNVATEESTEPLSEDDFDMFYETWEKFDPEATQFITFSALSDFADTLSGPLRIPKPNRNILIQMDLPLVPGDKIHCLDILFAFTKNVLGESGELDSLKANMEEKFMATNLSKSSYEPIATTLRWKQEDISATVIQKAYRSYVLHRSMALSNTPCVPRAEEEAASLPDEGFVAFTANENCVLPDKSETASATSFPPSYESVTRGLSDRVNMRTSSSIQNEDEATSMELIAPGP
row,SMILES,IC50 [nM]
1,"[2H]c1cc([C@H]2[C@H](C(=O)Nc3ccnc(C(N)=O)c3)O[C@@](C)(C(F)(F)F)[C@H]2C)c(OC)c(F)c1F [Compound 148, 4-[[(2R,3S,4S,5R)-3-(5-deuterio-3,4-difluoro-2-methoxy-phenyl)-4,5-dimethyl-5-(trifluoromethyl)tetrahydrofuran-2-carbonyl]amino]pyridine-2-carboxamide]",< 10
2,"[2H]c1c(NC(=O)[C@@H]2O[C@@](C)(C(F)(F)F)[C@@H](C)[C@H]2c2ccc(F)c(F)c2OC)ccnc1C(N)=O [Compound 129, 3-deuterio-4-[[(2R,3S,4S,5R)-3-(3,4-difluoro-2-methoxy-phenyl)-4,5-dimethyl-5-(trifluoromethyl)tetrahydrofuran-2-carbonyl]amino]pyridine-2-carboxamide]",< 10

# Same assay, conditions: in the Absence of Human Serum in the E-VIPR Assay; read-out: IC50
row,SMILES,IC50 [nM]
1,"COc1c([C@H]2[C@H](C(=O)Nc3cc(C(N)=O)ncn3)O[C@@](C)(C(F)(F)F)[C@H]2C)ccc(F)c1F [Compound 121, 6-[[(2R,3S,4S,5R)-3-(3,4-difluoro-2-methoxy-phenyl)-4,5-dimethyl-5-(trifluoromethyl)tetrahydrofuran-2-carbonyl]amino]pyrimidine-4-carboxamide]",< 10
2,"Cc1c([C@H]2[C@H](C(=O)Nc3ccnc(C(N)=O)c3)O[C@@](C)(C(F)(F)F)[C@H]2C)ccc(F)c1F (stereo in doubt) [Compound 132, rel-(2R,3S,4S,5R)-4-[[3-(3,4-difluoro-2-methyl-phenyl)-4,5-dimethyl-5-(trifluoromethyl)tetrahydrofuran-2-carbonyl]amino]pyridine-2-carboxamide]",< 10
3,"Cc1c([C@@H]2[C@@H](C(=O)Nc3ccnc(C(N)=O)c3)O[C@@](C)(C(F)(F)F)[C@H]2C)ccc(F)c1F (stereo in doubt) [Compound 134, rel-(2S,3R,4S,5R)-4-[[3-(3,4-difluoro-2-methyl-phenyl)-4,5-dimethyl-5-(trifluoromethyl)tetrahydrofuran-2-carbonyl]amino]pyridine-2-carboxamide]",100 to 1000

# Same assay, conditions: in the Presence of Human Serum in the E-VIPR Assay
row,SMILES,IC50 [nM]
1,"COc1c([C@H]2[C@H](C(=O)Nc3ccnc(C(N)=O)c3)O[C@@](C)(C(F)(F)F)[C@H]2C)ccc(F)c1F [Compound 7, (2R,3S,4S,5R)-4-[[3-(3,4-difluoro-2-methoxy-phenyl)-4,5-dimethyl-5-(trifluoromethyl)tetrahydrofuran-2-carbonyl]amino]pyridine-2-carboxamide]",< 10

# Same assay, conditions: in the Presence of Human Serum in the E-VIPR Assay; read-out: IC50
row,SMILES,IC50 [nM]
1,"COc1c([C@@H]2[C@@H](C(=O)Nc3ccnc(C(N)=O)c3)O[C@](C)(C(F)(F)F)[C@@H]2C)ccc(F)c1C(F)F (single isomer, unassigned) [Compound 45]",10 to 100
2,"COc1c([C@@H]2C[C@H](C(C)(C)C)O[C@H]2C(=O)Nc2ccnc(C(N)=O)c2)ccc(F)c1F (single isomer, unassigned) [Compound 66]",100 to 1000
3,"C[C@@H]1[C@H](c2ccc(F)c(F)c2OC(F)F)[C@@H](C(=O)Nc2cccc(C(N)=O)c2)O[C@]1(C)C(F)(F)F (single isomer, unassigned) [compound 51]",> 1000
4,"COc1c([C@@H]2C[C@H](C(F)(F)F)O[C@H]2C(=O)Nc2ccnc(C(N)=O)c2)ccc(F)c1F (stereo in doubt) [Compound 110, rel-(2R,3S,5R)-4-[[3-(3,4-difluoro-2-methoxy-phenyl)-5-(trifluoromethyl)tetrahydrofuran-2-carbonyl]amino]pyridine-2-carboxamide]",100 to 1000
5,"COc1c([C@H]2[C@@H](C)[C@@H](C)O[C@@H]2C(=O)Nc2ccnc(C(N)=O)c2)ccc(F)c1F (stereo in doubt) [Compound 107, rel-(2S,3R,4R,5R)-4-[[3-(3,4-difluoro-2-methoxy-phenyl)-4,5-dimethyl-tetrahydrofuran-2-carbonyl]amino]pyridine-2-carboxamide]",> 1000
6,Cc1c(F)ccc([C@@H]2[C@@H](C(=O)Nc3ccnc(C(N)=O)c3)O[C@](C)(C(F)(F)F)[C@@H]2C)c1OC(F)F (stereo in doubt) [compound 53],< 10
7,"C[C@H]1[C@@H](c2ccc(F)c(F)c2OCC2CC(F)(F)C2)[C@H](C(=O)Nc2ccnc(C(N)=O)c2)O[C@@]1(C)C(F)(F)F [Compound 146, 4-[[(2R,3S,4S,5R)-3-[2-[(3,3-difluorocyclobutyl)methoxy]-3,4-difluoro-phenyl]-4,5-dimethyl-5-(trifluoromethyl)tetrahydrofuran-2-carbonyl]amino]pyridine-2-carboxamide]",10 to 100
8,"COc1c([C@@H]2[C@@H](C(=O)Nc3ccnc(C(N)=O)c3)OC(C)(C)[C@H]2C)ccc(F)c1F (single isomer, unassigned) [Compound 101]",> 1000
9,"COc1cc(F)ccc1[C@H]1C[C@@](C)(C(F)(F)F)O[C@H]1C(=O)Nc1ccnc(C(N)=O)c1 (single isomer, unassigned) [Compound 69]",> 1000
10,"C[C@H]1[C@@H](c2ccc(F)c(F)c2OC(F)F)[C@H](C(=O)Nc2ccc(F)c(C(N)=O)c2)O[C@@]1(C)C(F)(F)F (single isomer, unassigned) [Compound 15]",< 10
11,"CC(C)Oc1c([C@@H]2[C@@H](C(=O)Nc3ccnc(C(N)=O)c3)O[C@](C)(C(F)(F)F)[C@@H]2C)ccc(F)c1F (single isomer, unassigned) [Compound 88]",> 1000
12,"C[C@H]1[C@@H](c2ccc(F)c(F)c2)[C@H](C(=O)Nc2ccnc(C(N)=O)c2)O[C@@]1(C)C(F)(F)F (single isomer, unassigned) [Compound 91]",100 to 1000
13,"CC(C)Oc1c([C@H]2[C@H](C(=O)Nc3ccnc(C(N)=O)c3)O[C@@](C)(C(F)(F)F)[C@H]2C)ccc(F)c1F (single isomer, unassigned) [Compound 89]",< 10
14,"COc1c([C@H]2C[C@@](C)(C(C)(F)F)O[C@@H]2C(=O)Nc2ccnc(C(N)=O)c2)ccc(F)c1F (single isomer, unassigned) [Compound 85]",> 1000
15,"COc1c([C@@H]2[C@@H](C(=O)Nc3ccnc(C(N)=O)c3)O[C@@](C)(C(F)F)[C@H]2C)ccc(F)c1F (stereo in doubt) [Compound 97, rel-(2S,3R,4S,5R)-4-[[3-(3,4-difluoro-2-methoxy-phenyl)-5-(difluoromethyl)-4,5-dimethyl-tetrahydrofuran-2-carbonyl]amino]pyridine-2-carboxamide]",> 1000
16,"CC[C@H]1[C@@H](c2ccc(F)c(F)c2OC)[C@H](C(=O)Nc2ccnc(C(N)=O)c2)O[C@@]1(C)C(F)(F)F (single isomer, unassigned) [Compound 93]",< 10
17,"COc1cc(F)ccc1[C@@H]1[C@@H](C)[C@](C)(C(F)(F)F)O[C@H]1C(=O)Nc1ccnc(C(N)=O)c1 (single isomer, unassigned) [Compound 39]",100 to 1000
18,"COc1c([C@@H]2[C@@H](C(=O)Nc3ccnc(C(N)=O)c3)OC(C)(C)[C@@H]2C)ccc(F)c1F (single isomer, unassigned) [Compound 106]",> 1000
19,"COc1c([C@H]2C[C@@H](C(F)(F)F)O[C@@H]2C(=O)Nc2ccnc(C(N)=O)c2)ccc(F)c1F (stereo in doubt) [Compound 109, rel-(2S,3R,5S)-4-[[3-(3,4-difluoro-2-methoxy-phenyl)-5-(trifluoromethyl)tetrahydrofuran-2-carbonyl]amino]pyridine-2-carboxamide]",> 1000
20,"CNC(=O)c1cc(NC(=O)[C@H]2O[C@@](C)(C(F)(F)F)C[C@@H]2c2ccc(F)c(Cl)c2OC)ccn1 (single isomer, unassigned) [Compound 61]",100 to 1000
